From patent US20260166021A1, “POLYMORPHIC FORMS OF A SOLUBLE EPOXIDE HYDROLASE INHIBITOR AND FORMULATIONS THEREOF” (EicOsis, LLC, priority 2022, published 2026)
≈ marks a conversion by molar mass, not a printed value.

Legend:
Assay type in all cases: physicochemical
[1] = Moisture-sorption analysis (DVS); settings: dynamic vapor sorption
Description: Gravimetric moisture sorption experiment was performed on all materials by first holding the sample at 40% RH and 25° C. until an equilibrium weight was reached or for a maximum of 4 h. The sample was then subjected to an isothermal (25° C.) adsorption scan from 40% to 90% R H in steps of 10% RH. The sample was allowed to equilibrate to an asymptotic weight at each point for a maximum of 4 h. Following adsorption, a desorption scan from 90% to 0% RH (at 25° C.) was run in steps of −10% R H allowing a maximum of 4 h for equilibration to an asymptotic weight. An adsorption scan was then performed from 0% RH to 40% RH in steps of +10% R H. The sample was then dried for more than 2 h at 60° C. 0% R H and the resulting solid analyzed by XRD.
FIGS. 88-92 provide physical analyses of lot 1. […] FIG. 90 provides a modulated DSC thermogram of lot 1, and identifies a glass transition temperature midpoint of around 48.5° C. […] FIG. 92 provides dynamic vapor sorption plots of lot 1, indicating 2.49 weight percent water vapor adsorption at 90% relative humidity, 1.25 weight percent water vapor adsorption at 60% relative humidity, and close to complete water vapor desorption at 0% relative humidity.
FIG. 95 provides polarized-light microscope images of lot 2 at 200× magnification, with 50 and 100 μm scales shown. […] FIG. 96 provides dynamic vapor sorption plots of lot 2, indicating 3.99 weight percent water vapor adsorption at 60% relative humidity, 4.12 weight percent water vapor adsorption at 90% relative humidity, and close to complete water vapor desorption at 0% relative humidity.

[2] = Differential scanning calorimetry (DSC): heat of fusion, thermal events; settings: DSC thermogram of lot
Description: Differential scanning calorimetry analyses were performed on each sample “as is.” Unless otherwise specified, samples were weighed in an aluminum pan, covered with a pierced lid, and then crimped and analyzed from 30-300° C. ramped at 10° C./min.
The DSC data were used to determine the heat of fusion for Forms A, B, D, and F, based on their heats of fusion as measured during conversion from Form C.

[3] = Particle size analysis (Malvern particle sizer, dry method; optical microscopy); settings: for Size range / birefringence / crystal shape: polarized-light microscopic images
Description: Particle size was first analyzed with optical microscopy.
Particle size was also analyzed with a dry-method using a Malvern 300 particle sizer equipped with a standard energy venturi and utilizing 2.5 bar, 3.0 bar, and 3.5 bar air pressure. […] One possible explanation is that the insufficient energy was provided to break up particle agglomerations.
Based on these findings, particle size analysis was repeated at 2.5, 3.0, and 3.5 bar using a higher energy venturi to ensure the break-up of the potential agglomerates. The detailed particle sizing data using high-energy venturi are summarized in TABLE 26 and in FIGS. 114-119, with FIGS. 114-116 corresponding to 2.5, 3.0, and 3.5 bar analyses of unmilled Form D and FIGS. 117-119 corresponding to 2.5, 3.0, and 3.5 bar analyses of micronized Form D, respectively. While the data remained bimodal, indicating incomplete break-up of particle agglomerates, the D90 of micronized material measured below 6 μm, in closer agreement with the optical analyses.

[4] = Thermal gravimetric analysis (TGA); settings: TGA thermogram of lot
Description: Thermal gravimetric analyses were performed on each sample “as is.” Unless otherwise noted, samples were weighed in an alumina crucible and analyzed from 30-350° C. at 10° C./min.
Form C weight loss at 39° C.-50° C. likely reflected methanol loss.

[5] = PEG-stability analyses: Form C/Form D mixture slurried in PEG300 with water
Description: Of particular interest was whether Form D would convert to a hydrate (e.g., Form C) in the presence of water. To investigate the critical water concentration for phase interconversion between Pattern C and D, a series experiments were designed (as summarized in TABLE 16). A 1:1 mixture of Forms C and D was prepared and slurried in PEG 300 with different levels of water concentrations. Phase transformations were monitored with XRD, and are summarized in FIG. 85, which (from top to bottom) provides XRD of Form C, Form D, the mixture following incubation in PEG300 containing 75% water, the mixture following incubation in PEG300 containing 50% water, the mixture following incubation in PEG300 containing 25% water, the mixture following incubation in PEG300 containing 10% water, and the mixture following incubation in PEG300 containing 5% water. […] Form D is the stable form in PEG300 with less than 50% water.

[6] = Supersaturation monitoring in PEG 300; settings: PEG 300 (0.5 mL)
[7] = Solubility of Form C in binary solvent systems (TABLE 22)
[8] = Thermal stress studies at 60° C. (XRD, HPLC); settings: incubated at 60° C., in less than 1 day
Description: Briefly, 20 mg of solid Form A, B, C, D, E, F, G, and I were weighed into 7 mL glass vials. The vials were covered with tissue and stored in ovens set to 60° C. and ambient pressure. Following 1 and 7 days incubation, solid was collected for XRD analysis.
As shown in these figures, Forms B and C converted to Forms D and A, respectively, while the other forms remained unchanged.
The starting materials, intermediates (1 day of thermal stress), and products (7 days of thermal stress) were analyzed by H PLC. Representative chromatograms from the Form D thermal stress analyses are shown in FIGS. 81-83 (starting material, 1 day, and 7 day samples, respectively).

[9] = Equilibrium-solubility screening in solvents and excipients
Description: For these analyses, Form D or Form C was mixed with 0.5 or 1.0 mL of solvents and equilibrated for approximately 24 hours. The mixture was filtered through 0.45 μm centrifuge filters.
As expected, the compound was not easily ionized at physiologically relevant pH. […] In addition, these excipients included surfactants, co-solvents, and lipids which are amenable for use in self-emulsifying drug delivery systems (SEDDS). The XRD pattern of the starting material was maintained for each sample after equilibrium.

[10] = Competitive slurry experiments (solvent-mediated polymorph transformation, XRD); settings: room temperature, water, MTBE or n-heptane, 1 and 7 days, listed as Pattern C
Description: Polymorph stability and interconversions were analyzed with competitive slurry experiments. The competitive slurry (solvent-mediated transformation) experiments were performed on Forms A, B, D, E, F, G, and I generated through scaled-up crystallization (summarized in TABLE 11). […] The suspensions were aliquoted at one day and seven days and filtered to isolate the solids. Remaining solid was analyzed by XRD without drying.
In FIG. 66, the second spectrum from the top corresponds to Form E. These XRD data confirmed that Patterns C, K, and D were afforded in these solvents.
In order to further confirm the rank of stability order of the selected forms and extend the temperature range of stability relationship up to 70° C. covering potential API process conditions, binary form slurries were conducted with starting mixtures of (1) Forms A and D, and (2) Forms D and E. The resultant polymorphs were characterized with XRD after 1 and 7 days, the results of which analyses are shown in FIGURE S 67-68 and summarized in TABLE 13. Pattern D stood out from both binary mixture slurries of A & D and of D & E after seven-day stirring at the elevated temperature.
Additional single form slurry experiments were conducted on Forms A, D, and E in either water or heptane at room temperature. […] In agreement with prior competitive slurry experiments, Form D was stable at room temperature in n-heptane. Pattern E was obtained from slurries starting with Forms A and E in n-heptane. As expected, Form C was formed from the Pattern E slurry in water.

[11] = Bulk and tapped density (tap density tester); settings: listed as micronixed form
Text: Before milling, Form D was screened through a 30-micron mesh sieve. Then, Form D micronized using a 2-inch jet mill 70 psig feed pressure, 40 psig grinding pressure, and a 4.3 g/min powder feed rate. The micronization process provided a 69% yield and 95.6% crystallinity relative to the unmilled material.

CC[C@H](C)C(=O)N1CCC(NC(=O)Nc2ccc(OC(F)(F)F)c(F)c2)CC1 [lot 2]
water vapor adsorption at 60% RH [1]: 60% RH 3.99 wt %
water vapor adsorption at 90% RH [1]: 90% RH 4.12 wt %
Endotherm (likely dehydration of bound water) [2]: 79 °C (likely dehydration of
Endotherm (melting of Form A) [2]: 111 °C (melting of Form A),
Exotherm (crystallization of Form B) [2]: 117 °C (crystallization of
Size range [3]: Size range; 5-200 μm;
birefringence [3]: Birefringent
crystal shape [3]: Irregular plate;
wt change at 233° C. [4]: 96% wt change
wt change below 100° C. [4]: 2.9% wt change

CC[C@H](C)C(=O)N1CCC(NC(=O)Nc2ccc(OC(F)(F)F)c(F)c2)CC1 [C (50%) + D (50%)]
XRD Pattern at Equilibrium ([5]; H2O:PEG 300 = 50%:50%): C (major) + D (minor)

CC[C@H](C)C(=O)N1CCC(NC(=O)Nc2ccc(OC(F)(F)F)c(F)c2)CC1 [Form C, (S)-1-(3-fluoro-4-(trifluoromethoxy)phenyl)-3-(1-(2-methylbutanoyl)piperidin-4-yl)urea]
Step → Observation ([6]; 100 mg/mL, 1. RT stirring for 1 hr, listed as Pattern C): 1. RT stirring for 1 hr →suspension
Step → Observation ([6]; 100 mg/mL, 2. 40 C. heating for 0.5 hr, listed as Pattern C): 2. 40 °C heating for 0.5 hr →clear solution
Step → Observation ([6]; 100 mg/mL, 3. RT storage for ~8 days, listed as Pattern C): 3. RT storage for ~8 days →clear solution
Step → Observation ([6]; 100 mg/mL, 4. RT storage for ~9 days, listed as Pattern C): 4. RT storage for ~9 days →precipitation
Step → Observation ([6]; 200 mg/mL, 1. RT stirring for 1 hr): 1. RT stirring for 1 hr →suspension
Step → Observation ([6]; 200 mg/mL, 2. 40 C. heating for 48 hr, listed as Pattern C): 2. 40 °C heating for 48 hr →suspension
Step → Observation ([6]; 200 mg/mL, 3. 55 C. heating for <16 hr): 3. 55 C. heating for <16 hr →clear solution
Step → Observation ([6]; 200 mg/mL, 4. RT storage for <3.5 days): 4. RT storage for <3.5 days →precipitation
Step → Observation ([6]; 200 mg/mL, 5. 55 C. reheating for overnight): 5. 55 C. reheating for overnight →clear solution
Step → Observation ([6]; 200 mg/mL, 6. RT storage for overnight): 6. RT storage for overnight →precipitation
solubility ([7]; IPA/n-heptane, ratio of n-heptane to primary 21.3, organic solvent or mixture): 5000 µg/mL
solubility ([7]; ethanol/n-heptane, organic solvent or mixture, EtOH, ratio of n-heptane to primary 7.7 (1st test point)): 38000 µg/mL
solubility ([7]; ethanol/n-heptane, organic solvent or mixture, EtOH, ratio of n-heptane to primary 13.2 (2nd test point)): 10000 µg/mL
solubility ([7]; ethyl acetate/n-heptane, organic solvent or mixture, EtoAC, ratio of n-heptane to primary 1.4 (1st test point)): 7000 µg/mL
solubility ([7]; ethyl acetate/n-heptane, organic solvent or mixture, EtoAC, ratio of n-heptane to primary 2.0 (2nd test point)): 4000 µg/mL
solubility ([7]; ethyl acetate/n-heptane, organic solvent or mixture, EtoAC, ratio of n-heptane to primary 2.2 (3rd test point)): 3000 µg/mL
solubility ([7]; organic solvent or mixture, IPA, ratio of n-heptane to primary 13.3 (1st test point)): 30000 µg/mL
solubility ([7]; organic solvent or mixture, IPA, ratio of n-heptane to primary 13.9 (2nd test point)): 10000 µg/mL
solubility ([7]; organic solvent or mixture, MEK, ratio of n-heptane to primary 2.0 (1st test point)): 11000 µg/mL
solubility ([7]; organic solvent or mixture, MEK, ratio of n-heptane to primary 3.0 (2nd test point)): 5000 µg/mL
solubility ([7]; organic solvent or mixture, MEK, ratio of n-heptane to primary 3.4 (3rd test point)): 4000 µg/mL
conversion to Form A [8]: 100%
stable form in PEG300 with 50% or higher water content ([5]; 1:1 mixture of Forms C and D slurried in PEG300, XRD): more stable
XRD Pattern At Equilibrium ([9]; PEG 300, 50%): Form C
solubility thermodynamic at 24 h ([9]; PEG 300, 50%, aqueous with cosolvent or surfactant or cyclodextrin, thermodynamic from solid): 800 µg/mL (≈ 1970 µM)
Equilibrium Solubility ([9]; PEG 300, 100%): 16700 µg/mL
XRD Pattern At Equilibrium ([9]; PEG 300, 100%): Form D
Equilibrium Solubility ([9]; PEG 400, 50%): 400 µg/mL
XRD Pattern At Equilibrium ([9]; PEG 400, 50%): Form C
Equilibrium Solubility ([9]; PEG 400, 100%): 17900 µg/mL
XRD Pattern At Equilibrium ([9]; PEG 400, 100%): Form D
polymorph stability in competitive slurry [10]: unstable hydrate

CC[C@H](C)C(=O)N1CCC(NC(=O)Nc2ccc(OC(F)(F)F)c(F)c2)CC1 [lot 1]
water vapor adsorption at 60% RH [1]: 60% RH 1.25 wt %
water vapor adsorption at 90% RH [1]: 90% RH 2.49 wt %
Endotherm (likely dehydration of bound water) [2]: 63 °C
Exotherm (crystallization of Form B) [2]: 115 °C (crystallization of
Size range [3]: Size range; 5-80 μm;
birefringence [3]: Birefringent
crystal shape [3]: Irregular plate;
wt change at 233° C. [4]: 99% wt change
wt change below 100° C. [4]: 0% wt change

CC[C@H](C)C(=O)N1CCC(NC(=O)Nc2ccc(OC(F)(F)F)c(F)c2)CC1 [micronized Form D, (S)-1-(3-fluoro-4-(trifluoromethoxy)phenyl)-3-(1-(2-methylbutanoyl)piperidin-4-yl)urea]
D90 particle size ([3]; higher energy venturi, 2.5, 3.0 and 3.5 bar): below 6 μm
bulk density [11]: 0.20 g/mL
tapped density [11]: 0.22 g/mL
